{
  "source": "paper PMC5289526",
  "about": "“Crystal Structure and Catalytic Mechanism of CouO, a Versatile C-Methyltransferase from Streptomyces rishiriensis” (PLoS ONE, 2017)",
  "target": "T1, CouO (Streptomyces rishiriensis, UniProt Q9F8T9)",
  "T1 construct": "recombinant from E. coli; pET26b-CouO template, pMS470 vector in E. coli TOP10F' for activity assays",
  "T1 sequence (Q9F8T9 whole entry)": "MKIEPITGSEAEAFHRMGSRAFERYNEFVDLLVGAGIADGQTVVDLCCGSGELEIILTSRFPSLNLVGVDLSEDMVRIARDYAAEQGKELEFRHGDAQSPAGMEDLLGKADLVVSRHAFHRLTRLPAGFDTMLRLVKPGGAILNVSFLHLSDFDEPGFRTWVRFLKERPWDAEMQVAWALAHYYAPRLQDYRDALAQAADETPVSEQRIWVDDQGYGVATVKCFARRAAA",
  "assay": "X-ray crystal structure, […] Å",
  "type": "binding",
  "details": "one SAH in each of two chains; cofactor site",
  "data": [
    {"molecule": "Nc1ncnc2c1ncn2[C@@H]1O[C@H](CSCC[C@H](N)C(=O)O)[C@@H](O)[C@H]1O", "note": "[SAH]", "values": [
      {"measurement": "X-ray crystal structure, 2.05 Å", "value": "one SAH cofactor molecule was present in each chain"}
    ]}
  ]
}
